Experimental data from patent US4882349A, “Pyrrolacetic amides having antiinflammatory activity” (priority 1982, dated 1989).

How the values were obtained:
[1] = tested on: carrageenin-induced oedema; assay: carrageenin-induced oedema test (anti-inflammatory activity); type: in vivo, albino male Wistar rats
Protocol: This effect was evaluated by means of an experimental model reproducing acute inflammation: for this purpose the carrageenin- induced oedema test was employed following the method described by C.
Albino male Wistar rats weighing 140-160 g were caged for 10 days at 22±1° C. and given a balanced diet and water ad libitum. Eighteen hours before the experiment the animals were randomized into groups of ten and fasted but with free access to water. Each dose was tested in three groups of rats. Each compound was given either orally, by gavage, or parenterally--intraperitoneal injection--administering as follows:
controls: 0.5% carboxymethylcellulose suspension in physiological saline, 10 ml/kg
treated: suspension of the compounds to be tested in the same vehicle and at the same volume (10 ml/kg) used for the controls at the doses specified below.
One hour after administration of the compounds and vehicle, in order to provoke the oedema for determining the protective effect of the substances under examination, each rat received, by subcutaneous injection into the plantar surface of the left paw, 0.1 ml of 1% sterile carrageenin suspension.

[2] = tested on: phenyl-p-quinone-induced writhing (abdominal contractions); assay: phenylquinone-induced writhing test (analgesic activity), compound given 30 min before phenyl-p-quinone; type: in vivo, male Wistar rats
Protocol: Male Wistar rats weighing 110±5 g were caged for 10 days at 22±1° C. and given a balanced diet with free access to water. Twenty-four hours before the experiment the animals were randomized into groups of 10 and fasted for 14 hours but with free access to water. Each dose was tested in 3 groups of rats. Thirty minutes following administration either orally or parenterally of the products to be tested and the vehicle alone (0.5% carboxymethyl-cellulose in physiological saline) in the control animals, each rat was given 2 ml of a 5% absolute ethanol aqueous solution containing 0.36% of phenyl-p-quinone (Sigma Chemical Company) in order to provoke writhings. Fifteen minutes after administration of phenyl-p-quinone the number of contractions were counted for 20 minutes. The inhibiting effect of the compounds under examination on the abdominal contractions induced by phenyl-p-quinone was calculated by the following formula: % protection= [formula]
Table V lists the tested compounds, doses, routes of administration and their efficacy expressed as percentage of protection, taking into account that phenyl-p-quinone was administered thirty minutes after the compounds.

[3] = tested on: mucus secreted by the respiratory airway; assay: antisecretory activity, respiratory mucus secretion; type: in vivo, albino male New Zealand rabbits; details: vs control group
Protocol: The experiment was carried out in accordance with the method described by Y. Kase (Folia Pharmacol. Jap. 73: 605, 1977) for the purpose of investigating whether or not the compounds under examination determine changes in the volume of the mucus secreted by the respiratory airway. Groups of four albino male New Zealand rabbits (mean weight: 2.5 kg) were used for testing each dose per single group. The animals were anesthetized with urethane (1.1 g/ks b.w.) via the intraperitoneal route and a Y cannula was inserted into the trachea. In order to stimulate mucous secretion a humidifier was connected to the cannula permitting the animals to spontaneously breathe air with 100% humidity at a constant temperature of 39° C. The secreted mucus was collected through another opening in the cannula and measured at three and six hours after administration of the compounds under examination or of the vehicle alone administered in the order of […] (controls). Calculation of the increase or decrease in mucous secretion was based upon the percentage differences between the groups treated with the compounds under examination and the control group. Table VII gives the percentage differences in mucous secretion, and the tested compounds with relative doses and routes of administration.

[4] = tested on: cough provoked by mechanical stimulation of the tracheal bifurcation mucosa; assay: antitussive activity, mechanically provoked coughing; type: in vivo, albino Guinea-pigs; details: 1 h after administration
Protocol: The antitussive effect on albino Guinea-pigs weighing 300 g was evaluated using the method described by Y. Kase (Selected Pharmacological Testing Methods, p.363, Marcel Dekker Inc., New York, 1968). Each dose was tested in a group of animals with a Y cannula inserted into the trachea. In order to provoke coughing, the mucosa of the tracheal bifurcation was mechanically stimulated by insertion of a wild boar's hair through an opening in the cannula, while the other opening was connected to a kymograph to plot the amplitude and/or frequency. The reduction in the number of coughs was evaluated at one hour after administration of the compounds under examination by following the plottings for twenty minutes and comparing the response of the control animals.

`Cc1ccc(C(=O)c2ccc(CC(=O)NCC(=O)O)n2C)cc1` [Compound 1-c, 1-methyl-5-p-toluoylpyrrole-2-acetamidoacetic acid] was tested, and the oedema % inhibition ([1]; 25 mg/Kg per os, 2 h) was 38,6%, the oedema % inhibition ([1]; 25 mg/Kg per os, 4 h) was 39,1% and the oedema % inhibition ([1]; 25 mg/Kg per os, 6 h) was 37.2%. The oedema % inhibition ([1]; 25 mg/Kg per os, 24 h) was 12.1%, the oedema % inhibition ([1]; 25 mg/Kg per os, 48 h) was 0.0% and the oedema % inhibition ([1]; 25 mg/Kg per os, 72 h) was 0.0%. For the same molecule, the oedema % inhibition ([1]; 25 mg/Kg, Table IV (route not given), 2 h) was 40.0%, the oedema % inhibition ([1]; 25 mg/Kg, Table IV (route not given), 4 h) was 44.8% and the oedema % inhibition ([1]; 25 mg/Kg, Table IV (route not given), 6 h) was 45.0%. It also gave an oedema % inhibition ([1]; 25 mg/Kg, Table IV (route not given), 24 h) of 9.0%, an oedema % inhibition ([1]; 25 mg/Kg, Table IV (route not given), 48 h) of 0.0% and an oedema % inhibition ([1]; 25 mg/Kg, Table IV (route not given), 72 h) of 0.0%. It also gave an oedema % inhibition ([1]; 50 mg/Kg per os, 2 h) of 51.8%, an oedema % inhibition ([1]; 50 mg/Kg per os, 4 h) of 58.9% and an oedema % inhibition ([1]; 50 mg/Kg per os, 6 h) of 60.4%. The oedema % inhibition ([1]; 50 mg/Kg per os, 24 h) was 18.7%, the oedema % inhibition ([1]; 50 mg/Kg per os, 48 h) was 0.0% and the oedema % inhibition ([1]; 50 mg/Kg per os, 72 h) was 0.0%. The oedema % inhibition ([1]; 50 mg/Kg, Table IV (route not given), 2 h) was 55.0%, the oedema % inhibition ([1]; 50 mg/Kg, Table IV (route not given), 4 h) was 64.0% and the oedema % inhibition ([1]; 50 mg/Kg, Table IV (route not given), 6 h) was 65.4%. The oedema % inhibition ([1]; 50 mg/Kg, Table IV (route not given), 24 h) was 20.0%, the oedema % inhibition ([1]; 50 mg/Kg, Table IV (route not given), 48 h) was 8.0% and the oedema % inhibition ([1]; 50 mg/Kg, Table IV (route not given), 72 h) was 0.0%. The oedema % inhibition ([1]; 100 mg/Kg per os, 2 h) was 69.0%, the oedema % inhibition ([1]; 100 mg/Kg per os, 4 h) was 70.1% and the oedema % inhibition ([1]; 100 mg/Kg per os, 6 h) was 67.0%. It also gave an oedema % inhibition ([1]; 100 mg/Kg per os, 24 h) of 26.0%, an oedema % inhibition ([1]; 100 mg/Kg per os, 48 h) of 10.0% and an oedema % inhibition ([1]; 100 mg/Kg per os, 72 h) of 0.0%. For the same molecule, the oedema % inhibition ([1]; 100 mg/Kg, Table IV (route not given), 2 h) was 74.8%, the oedema % inhibition ([1]; 100 mg/Kg, Table IV (route not given), 4 h) was 77.5% and the oedema % inhibition ([1]; 100 mg/Kg, Table IV (route not given), 6 h) was 74.0%. The oedema % inhibition ([1]; 100 mg/Kg, Table IV (route not given), 24 h) was 30.4%, the oedema % inhibition ([1]; 100 mg/Kg, Table IV (route not given), 48 h) was 12.0% and the oedema % inhibition ([1]; 100 mg/Kg, Table IV (route not given), 72 h) was 0.0%. For the same molecule, the “% Protection” value ([2]; 5 mg/Kg i.p.) was 27.1%, the “% Protection” value ([2]; 5 mg/Kg per os) was 25.3% and the “% Protection” value ([2]; 10 mg/Kg i.p.) was 46.3%. For the same molecule, the “% Protection” value ([2]; 10 mg/Kg per os) was 49.0%, the “% Protection” value ([2]; 20 mg/Kg i.p.) was 82.0% and the “% Protection” value ([2]; 20 mg/Kg per os) was 85.1%. The “% difference in mucus secretion” value ([3]; 50 mg/Kg i.p., 3 h) was 0.0%, the “% difference in mucus secretion” value ([3]; 50 mg/Kg i.p., 6 h) was 0.0% and the “% difference in mucus secretion” value ([3]; 50 mg/Kg per os, 3 h) was 0.0%. For the same molecule, the “% difference in mucus secretion” value ([3]; 50 mg/Kg per os, 6 h) was “+6%”, the “% difference in mucus secretion” value ([3]; 75 mg/Kg i.p., 3 h) was -12% and the “% difference in mucus secretion” value ([3]; 75 mg/Kg i.p., 6 h) was -7%. The “% difference in mucus secretion” value ([3]; 75 mg/Kg per os, 3 h) was -10%, the “% difference in mucus secretion” value ([3]; 75 mg/Kg per os, 6 h) was -8% and the “% difference in mucus secretion” value ([3]; 100 mg/Kg i.p., 3 h) was -37%. The “% difference in mucus secretion” value ([3]; 100 mg/Kg i.p., 6 h) was -25%, the “% difference in mucus secretion” value ([3]; 100 mg/Kg per os, 3 h) was -35% and the “% difference in mucus secretion” value ([3]; 100 mg/Kg per os, 6 h) was -22%. For the same molecule, the “% inhibition, cough amplitude” value ([4]; 50 mg/Kg i.p.) was 10%, the “% inhibition, cough frequency” value ([4]; 50 mg/Kg i.p.) was 25% and the “% inhibition, cough amplitude” value ([4]; 50 mg/Kg per os) was 12%. The “% inhibition, cough frequency” value ([4]; 50 mg/Kg per os) was 20%, the “% inhibition, cough amplitude” value ([4]; 75 mg/Kg i.p.) was 15% and the “% inhibition, cough frequency” value ([4]; 75 mg/Kg i.p.) was 27%. For the same molecule, the “% inhibition, cough amplitude” value ([4]; 75 mg/Kg per os) was 20%, the “% inhibition, cough frequency” value ([4]; 75 mg/Kg per os) was 22% and the “% inhibition, cough amplitude” value ([4]; 100 mg/Kg i.p.) was 40%. For the same molecule, the “% inhibition, cough frequency” value ([4]; 100 mg/Kg i.p.) was 51%, the “% inhibition, cough amplitude” value ([4]; 100 mg/Kg per os) was 38% and the “% inhibition, cough frequency” value ([4]; 100 mg/Kg per os) was 45%.
